Laboratory results taken from US20240325339A1, “MELATONIN AGONIST TREATMENT” (Vanda Pharmaceuticals Inc., priority 2006, published 2024).
Entries after “also recorded” stand apart in the source; their conditions may differ.

Columns and labels:
MT1R melatonin receptor = MT1R melatonin receptor (Homo sapiens, UniProt P48039); conditions: cited from earlier work
Solubility = type: physicochemical
[1] = tested on: healthy male and female subjects with induced transient insomnia; experiment: Example 2 study: tolerability; type: in vivo, human; conditions: single oral doses 20, 50 and 100 mg
Protocol: (§1) A multi-center, randomized, double-blind, placebo-controlled, parallel-group study was conducted to investigate the efficacy and safety of single oral doses of VEC-162 (20, 50, and 100 mg) and matching placebo in healthy male and female subjects with induced transient insomnia. Approximately four hundred subjects were randomized in approximately a 1:1:1:1 ratio to the treatment groups.
(§2) In general, a screening period began 14 to 35 days prior to the start of the evaluation period, which was Day 1. Prior to Day 1, subjects were asked to increase their sleep time to 9 hours per night. Drug, or placebo, was administered on Night 1, approximately 0.5 hour prior to lights off.

[2] = tested on: preclinical models of acute phase-shifting and chronic re-entrainment; conditions: cited from earlier work
[3] = tested on: healthy male and female subjects with induced transient insomnia; experiment: Example 2 study of single oral doses in induced transient insomnia: polysomnography; type: in vivo, human
Protocol: as §1, §2
The primary efficacy variable was LPS. LPS is defined as the length of time elapsed between lights off and onset of persistent sleep. In this trial, persistent sleep is defined as the point at which 10 minutes of uninterrupted sleep has begun. Sleep was determined on the basis of polysomnography (PSG).
Secondary efficacy parameters included the following: • Wake After Sleep Onset (WASO): WASO is defined as the time spent awake between onset of sleep and Lights On during Night 1, determined by PSG. • Latency to Non-Awake (LNA): LNA is defined as the number of minutes to reach any stage of sleep. • Total Sleep Time (TST): TST is defined as the number of minutes spent asleep during the entire time in bed.

[4] = 50 mg; cited from earlier work
healthy volunteers [5] = conditions: cited from earlier work
healthy volunteers [6] = experiment: Example 1 clinical trial, 5-hour advance in bedtime: dim light melatonin onset (DLMO) from plasma melatonin; type: in vivo, human
Protocol: (§3) A clinical trial was conducted to assess the safety of MA-1 as well as to determine the ability of MA-1 to shift the sleep/wake cycle following a 5-hour advance in bedtime. The study was a randomized, double-blind, parallel group, placebo-controlled study. It consisted of a 2-4-week outpatient screening period followed by an 8-day inpatient stay. After acclimating to the sleep lab, bedtime was advanced by 5 hours. The primary objectives of this study were to investigate the exposure-response to MA-1 on advancement of circadian release of endogenous melatonin rhythm as measured by dim light melatonin onset (DLMO, a biomarker of the sleep-wake cycle), to investigate the exposure-response to MA-1 on mean sleep efficiency parameters as measured by PSG, to investigate the exposure-response to MA-1 on objective neurobehavioral performance lapses during scheduled work-time as measured by computerized continuous performance testing, and to assess the safety and tolerability of MA-1. Forty-five healthy volunteers, men and women aged 18-50, were enrolled into this study. Thirty-nine subjects were randomized.
The study was designed to assess the safety and efficacy of four oral doses of MA-1 (10 mg, 20 mg, 50 mg and 100 mg) compared to matching placebo on circadian phase shift, sleep parameters during the major sleep episode, and subject alertness. After written informed consent was signed, subjects that met the inclusion/exclusion criteria at screening and baseline were enrolled into the 8-day in-patient portion of the study. All in-patient assessments were conducted in a time-isolation sleep lab in which no time cues were available to subjects. During the first three nights, subjects were given placebo 30 minutes prior to bedtime (11:00 PM) in a single-blind fashion. Baseline assessments for the efficacy parameters were measured during this period. At 5:00 PM on day 3, subjects started a 19 hour Pre-constant posture (CP) segment during which time the subjects remained seated in a semi-recumbent position and blood samples were collected approximately every hour from 7:00 AM to 12:00 PM. The purpose of the pre-CP segment is to provide a measure of each subject's circadian phase before the start of the night shift segment. On day 4, subjects were randomized to once daily treatment in one of the five treatment groups. In addition, subject sleep-wake routines were advanced 5 hours, such that subjects were required to sleep from approximately 6:00 PM-2:00 AM. […] Safety was assessed throughout the study, at the end of study (EOS) visit on day 8, and at the Follow-up visit. […]
To assess circadian sleep-wake cycles in the study, plasma melatonin levels were assessed. […] To assess the effects of MA-1 on the sleep-wake cycles, DLMO was monitored in subjects before and after treatment. […]

MT2R melatonin receptor = target: T1, MT2R melatonin receptor (Homo sapiens, UniProt P49286); conditions: cited from earlier work
T1 sequence (P49286 1-362): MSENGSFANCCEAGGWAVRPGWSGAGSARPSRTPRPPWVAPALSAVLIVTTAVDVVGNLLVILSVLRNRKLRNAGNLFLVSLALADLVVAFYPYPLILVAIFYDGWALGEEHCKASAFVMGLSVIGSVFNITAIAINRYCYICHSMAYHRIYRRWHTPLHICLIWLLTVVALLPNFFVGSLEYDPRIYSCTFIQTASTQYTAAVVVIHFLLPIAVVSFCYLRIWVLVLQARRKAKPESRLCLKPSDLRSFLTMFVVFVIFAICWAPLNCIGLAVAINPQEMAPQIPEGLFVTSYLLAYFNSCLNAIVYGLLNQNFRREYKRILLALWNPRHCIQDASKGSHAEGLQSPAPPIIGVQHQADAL

healthy volunteers [7] = experiment: Example 1 clinical trial, 5-hour advance in bedtime: polysomnography (sleep efficiency, sleep latency, WASO, sleep architecture); conditions: human, in vivo
Protocol: as §3, with “Thirty-nine subjects were randomized.” left out
The study was designed to assess the safety and efficacy of four oral doses of MA-1 (10 mg, 20 mg, 50 mg and 100 mg) compared to matching placebo on circadian phase shift, sleep parameters during the major sleep episode, and subject alertness. […] Baseline assessments for the efficacy parameters were measured during this period. […]

[8] = Example 1 clinical trial: exposure (Cmax, AUC); type: in vivo, human
Protocol: as §3
The differences in DLMO25% between the endpoint day (Nights 4, 5 and 6) and baseline (Night 3) were analyzed by comparing pairwise each dose group to placebo using a linear one-way analysis of variance (ANOVA) model using in SAS® (SAS® Institute, Cary, North Carolina). Means were calculated using the LS Means method in SAS®. Standard deviations were calculated using the Statistical Summary function in SAS®. Other statistical tests were also presented in graphics. These included: linear regression of response vs. exposure (dose, AUC, or Cmax), Kendall-tau nonparametric regression, and Spearman nonparametric regression.

[9] = tested on: elderly patients with primary insomnia; conditions: 28-day Phase II study; cited from earlier work

Sequence of MT1R melatonin receptor (P48039 whole entry): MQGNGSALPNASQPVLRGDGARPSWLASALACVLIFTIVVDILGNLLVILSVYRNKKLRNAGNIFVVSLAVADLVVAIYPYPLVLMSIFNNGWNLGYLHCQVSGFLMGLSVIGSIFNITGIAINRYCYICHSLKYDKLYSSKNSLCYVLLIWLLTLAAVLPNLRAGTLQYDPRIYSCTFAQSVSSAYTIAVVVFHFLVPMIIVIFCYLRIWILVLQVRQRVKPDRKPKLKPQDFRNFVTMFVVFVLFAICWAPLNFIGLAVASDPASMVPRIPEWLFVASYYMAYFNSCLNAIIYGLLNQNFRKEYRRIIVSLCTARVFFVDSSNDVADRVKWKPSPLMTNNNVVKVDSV

With `CCC(=O)NC[C@@H]1C[C@H]1c1cccc2c1CCO2` [MA-1, (1R-trans)-N-[[2-(2,3-dihydro-4-benzofuranyl)cyclopropyl]methyl]propanamide] as the molecule, how does the “Agonist activity at MT1R” value (MT1R melatonin receptor) read?
The value was “specific and potent agonist”.

What about the “Effect of pH on aqueous solubility” value (Solubility) of the same molecule?
The value was “practically unaffected by pH”.

And the Tolerability [1]?
The Tolerability was “well-tolerated at all doses”.

And the Chronobiotic activity [2]?
The Chronobiotic activity was “potent chronobiotic activity”.

And the “Efficacy compared with 100 mg” value ([3]; 20 mg single oral dose)?
The value was “comparable or superior to 100 mg”.

What about the “Efficacy compared with 100 mg” value ([3]; 50 mg single oral dose) of the same molecule?
Its value is “more efficacious than 100 mg”.

And the “Shift of circadian rhythms” value [4]?
The value was “consistently shifted circadian rhythms”.

And the “Tolerability, multiple doses” value (healthy volunteers [5]; multiple doses up to 150 mg, up to 28 days)?
Its value is “safety and tolerability of MA-1 at doses up to 150 mg has been demonstrated; also recorded: well-tolerated”.

What about the “Tolerability, single doses” value (healthy volunteers [5]; single oral doses up to 300 mg, healthy volunteers) of the same molecule?
The value was “safe and well tolerated”.

And the “Change in DLMO25%, LOQ5 between Night 4 and Night 3” value (“Change in DLMO25%” for short) (healthy volunteers [6]; 10 mg oral, N = 8, mean)?
Its value is 0.18 h.

And the “Change in DLMO25%” value (healthy volunteers [6]; 20 mg oral, N = 7, mean)?
Its value is -1.14 h.

What about the “Change in DLMO25%” value (healthy volunteers [6]; 50 mg oral, N = 4, mean) of the same molecule?
The value was -0.50 h.

And the “Change in DLMO25%” value (healthy volunteers [6]; 100 mg oral, N = 5, mean ± SD)?
Its value is -2.74 ± 1.95 h.

And the “Agonist activity at MT2R” value (MT2R melatonin receptor)?
The value was “specific and potent agonist”.

And the “Percentage of time in each sleep stage between Night 4 and Night 2” value (healthy volunteers [7])?
Its value is “did not change”.

What about the “Exposure levels: effect of covariates” value ([8]; human, in vivo) of the same molecule?
The value was “not affected by age, weight, height, gender, creatinine clearance, or ALT baseline levels”.

And the AUC versus dose ([8]; oral doses 10-100 mg)?
The AUC versus dose was “increased approximately proportional to dose”.

And the Cmax versus dose ([8]; oral doses 10-100 mg)?
Its Cmax versus dose is “increased in a manner approximately proportional to the dose”.

What about the “Sleep latency and number of nocturnal awakenings versus placebo” value [9] of the same molecule?
Its value is “did not differentiate from placebo”.
